Test results as given in ChEMBL document CHEMBL1671658, “VanA-type vancomycin-resistant Staphylococcus aureus” (2009).
≈ marks a conversion by molar mass, not a printed value.

What was measured:
[1] = test system: Staphylococcus aureus; assay: Antibacterial activity against VanA-type vancomycin-resistant Staphylococcus aureus isolate 1 harboring vanA operon
[2] = test system: Staphylococcus aureus; assay: Antibacterial activity against VanA-type vancomycin-resistant Staphylococcus aureus isolate 2 harboring vanA operon
[3] = test system: Staphylococcus aureus; assay: Antibacterial activity against VanA-type vancomycin-resistant Staphylococcus aureus isolate 3 harboring vanA operon
[4] = test system: Staphylococcus aureus; assay: Antibacterial activity against high-level-resistant vancomycin-resistant Staphylococcus aureus harboring Tn1546 element

CN[C@H](CC(C)C)C(=O)N[C@H]1C(=O)N[C@@H](CC(N)=O)C(=O)N[C@H]2C(=O)N[C@H]3C(=O)N[C@H](C(=O)N[C@H](C(=O)O)c4cc(O)cc(O)c4-c4cc3ccc4O)[C@H](O)c3ccc(c(Cl)c3)Oc3cc2cc(c3O[C@@H]2O[C@H](CO)[C@@H](O)[C@H](O)[C@H]2O[C@H]2C[C@](C)(N)[C@H](O)[C@H](C)O2)Oc2ccc(cc2Cl)[C@H]1O [VANCOMYCIN]
MIC [1]: > 256 µg/mL
MIC [2]: 32 µg/mL (≈ 22.1 µM)
MIC [3]: 64 µg/mL (≈ 44.2 µM)
MIC [4]: > 256 µg/mL
